Data taken from PubChem BioAssay (NCI).
Values joined by “and” are separate entries in the source; they are usually repeats but may differ in a detail not shown here. Equal entries are not always repeated.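 Cells were grown in 96-well plates and exposed to each compound for 48 hours at five concentrations; endpoints were interpolated linearly between bracketing concentrations, or set to the highest concentration if not reached. GI50 = concentration required for 50% inhibition of growth. TGI is the concentration that stops growth completely.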

Columns and labels:
Assay in all cases: growth of human tumour cells (NCI), 48 h
RPMI-8226 leukemia = test system: RPMI-8226 leukemia
COLO 205 colon = test system: COLO 205 colon
RXF 393 renal = test system: RXF 393 renal
HCC-2998 colon = test system: HCC-2998 colon
HL-60(TB) leukemia = test system: HL-60(TB) leukemia
HOP-92 NSCLC = test system: HOP-92 NSCLC
CCRF-CEM leukemia = test system: CCRF-CEM leukemia
MALME-3M melanoma = test system: MALME-3M melanoma
SN12C renal = test system: SN12C renal
UO-31 renal = test system: UO-31 renal

SMILES	TGI (RPMI-8226 leukemia)	TGI (COLO 205 colon)	TGI (RXF 393 renal)	TGI (HCC-2998 colon) [µM]	TGI (HL-60(TB) leukemia)	TGI (HOP-92 NSCLC)	TGI (CCRF-CEM leukemia)	TGI (MALME-3M melanoma)	TGI (SN12C renal) [µM]	TGI (UO-31 renal)	GI50 (UO-31 renal)	GI50 (RPMI-8226 leukemia) [µM]	GI50 (COLO 205 colon)	GI50 (RXF 393 renal)	GI50 (HCC-2998 colon) [µM]	GI50 (HOP-92 NSCLC)	GI50 (CCRF-CEM leukemia) [µM]	GI50 (MALME-3M melanoma)	GI50 (SN12C renal) [µM]	GI50 (HL-60(TB) leukemia) [µM]
CN(C)c1ccc2c(c1)oc(=O)c1ccccc12	28.8 µM	24.7 µM	19.3 µM	28.8	20.3 µM	30 µM	27.9 µM	24.5 µM	25.8	–	–	–	–	–	–	–	–	–	–	–
CC1=C[C@@H]2Cc3occc3C(C)(C)[C@@H]2CC1	–	33.7 µM	33.7 µM	36.2	39.1 µM	38.9 µM	35.6 µM	44.2 µM	29.8	33.8 µM	–	–	–	–	–	–	–	–	–	–
CC(=O)c1ccc(N(/C=C/C(=O)C(F)(F)F)CC(=O)c2ccc(Cl)c(Cl)c2)cc1	36.6 µM	65 µM	30.4 µM	34.9	–	29 µM	36.9 µM	25 µM	28.8	30.5 µM	16.5 µM	9.64	22.6 µM	13.9 µM	18.5	13.5 µM	10.4	11.7 µM	15	–
COC(=O)C(CC(=O)c1cc2c(cc1I)OCO2)Cc1cc(OC)c(OC)c(OC)c1I (stereo not given)	> 100 µM	> 100 µM	> 100 µM	> 100	> 100 µM	> 100 µM	> 100 µM	> 100 µM	> 100	–	–	–	–	–	–	–	–	–	–	–
O=C(O)Cc1c[nH]c2ccc(F)cc12	> 100 µM	> 100 µM	> 100 µM	> 100	> 100 µM	> 100 µM	> 100 µM	–	> 100	> 100 µM	–	–	–	–	–	–	–	–	–	–
C#CC(C)(C)Oc1cc(O)c2c(=O)c3ccccc3n(C)c2c1	–	> 100 µM	> 100 µM	> 100	> 100 µM	> 100 µM	> 100 µM	> 100 µM	> 100	> 100 µM	–	–	–	–	–	–	–	–	–	–
COc1ccc(CNC(=O)COc2ccc(/C=N/Nc3nc4ccccc4s3)cc2)cc1	> 100 µM	–	3.76 µM	> 100	> 100 µM	4.41 µM	> 100 µM	3.89 µM	> 100	–	–	2.13	–	1.75 µM	5.37	1.4 µM	> 100	1.55 µM	2.84	> 100
CCCCn1/c(=N/C(=S)N(C)C)ss/c1=N\C(=S)N(C)C	> 100 µM	–	> 100 µM	> 100	> 100 µM	> 100 µM	> 100 µM	> 100 µM	> 100	> 100 µM	–	–	–	–	–	–	–	–	–	–
O=C1CSC(N2CCN(c3cccc(Cl)c3)CC2)=N1	> 100 µM	> 100 µM	> 100 µM	> 100	> 100 µM	–	> 100 µM	> 100 µM	> 100	> 100 µM	> 100 µM	> 100	> 100 µM	> 100 µM	> 100	–	> 100	> 100 µM	> 100	> 100
C1CN2N3CCCC23C1 (stereo not given)	> 100 µM	> 100 µM	> 100 µM	> 100	> 100 µM	–	> 100 µM	> 100 µM	> 100	> 100 µM	–	–	–	–	–	–	–	–	–	–
O=C(Nc1ccccc1[N+](=O)[O-])c1ccccc1	> 100 µM	> 100 µM	> 100 µM	> 100	> 100 µM	> 100 µM	–	> 100 µM	> 100	> 100 µM	–	–	–	–	–	–	–	–	–	–
CN(C)CCNc1nc2ccccc2c2[nH]c3ccccc3c12	1.97 µM	1.09 µM	5.41 µM	2.38	3.77 µM	2.42 µM	3.95 µM	–	2.82	13 µM	1.01 µM	0.648	0.316 µM	1.27 µM	0.483	0.464 µM	0.937	–	0.693	1.55
C[Si](C)(C)c1ccc(CC2(Cc3ccc([Si](C)(C)C)cc3)CCNC2)cc1	–	3.19 µM	3.14 µM	4.43	> 100 µM	3.18 µM	48.1 µM	11.6 µM	3.11	5.9 µM	–	–	–	–	–	–	–	–	–	–
Cc1c(N2C(=O)/C(=C\c3ccccc3O)N=C2c2ccccc2)c(=O)n(-c2ccccc2)n1C	> 100 µM	> 100 µM	> 100 µM	> 100	> 100 µM	68.4 µM	–	> 100 µM	> 100	> 100 µM	> 100 µM	> 100	> 100 µM	53.8 µM	> 100	17.6 µM	–	49.1 µM	> 100	> 100
CNC(=O)c1cc(Oc2ccc3c(c2)sc2nc(-c4ccc(N)cc4)cn23)ccn1	26.3 µM	27.2 µM	> 100 µM	> 50.5	–	> 100 µM	> 100 µM	–	> 100	> 100 µM	0.467 µM	0.32	0.305 µM	0.297 µM	0.537	5.98 µM	0.2	–	0.759	0.108
O=C(O)CCCc1ccc(N(CCCl)CCCl)cc1	81.1 µM and 447 µM and 335 µM	45.9 µM and 271 µM and 333 µM	23 µM and 118 µM and 97.7 µM	–	21.2 µM and 121 µM	46.6 µM and 199 µM and 175 µM	34.2 µM and 170 µM and 18.6 µM	26.3 µM and 188 µM and 141 µM	–	34.7 µM and 272 µM and 56.2 µM	9.38 µM and 32 µM	13	22.6 µM and 201 µM	9.53 µM and 57.7 µM	–	25.2 µM and 99.1 µM	0.881	10.3 µM and 97.8 µM	–	0.979
CN(C)S(=O)(=O)Nc1ccccn1	> 100 µM	> 100 µM	> 100 µM	> 100	> 100 µM	> 100 µM	–	> 100 µM	> 100	> 100 µM	–	–	–	–	–	–	–	–	–	–
CC1CCC[P+](Cc2ccccc2)(c2ccccc2)CC1 (stereo not given)	51.4 µM	> 100 µM	> 100 µM	> 100	37.8 µM	–	> 100 µM	42.6 µM	> 100	> 100 µM	–	–	–	–	–	–	–	–	–	–
